ON(Cc1ccccc1)Cc1ccccc1
Conditions	solubility (mole fraction)
in 1,2,4-trichlorobenzene, 293.75 K	0.00704
in 1,2,4-trichlorobenzene, 299.15 K	0.0103
in 1,2,4-trichlorobenzene, 303.25 K	0.0138
in 1,2,4-trichlorobenzene, 308.45 K	0.0198
in 1,2,4-trichlorobenzene, 313.15 K	0.0263
in 1,2,4-trichlorobenzene, 318.15 K	0.0367
in 1,2,4-trichlorobenzene, 323.15 K	0.0502
in 1,2-dichlorobenzene, 273.15 K	0.00343
in 1,2-dichlorobenzene, 279.15 K	0.00486
in 1,2-dichlorobenzene, 283.65 K	0.00624
in 1,2-dichlorobenzene, 289.15 K	0.0086
in 1,2-dichlorobenzene, 293.25 K	0.0106
in 1,2-dichlorobenzene, 298.65 K	0.0142
in 1,2-dichlorobenzene, 303.25 K	0.0182
in 1,2-dichlorobenzene, 309.05 K	0.024
in 1,2-dichlorobenzene, 313.25 K	0.0302
in 1,2-dichlorobenzene, 318.95 K	0.0395
in 1,2-dichlorobenzene, 323.35 K	0.0475
in THF, 273.65 K	0.051
in THF, 279.15 K	0.0594
in THF, 284.15 K	0.0678
in THF, 289.15 K	0.0773
in THF, 293.75 K	0.0865
in THF, 299.15 K	0.0986
in THF, 303.25 K	0.109
in THF, 308.45 K	0.123
in THF, 313.15 K	0.137
in THF, 318.15 K	0.152
in THF, 323.15 K	0.169
in acetone, 273.15 K	0.00762
in acetone, 279.15 K	0.0102
in acetone, 283.45 K	0.0124
in acetone, 289.05 K	0.0159
in acetone, 293.05 K	0.0186
in acetone, 297.65 K	0.0229
in acetone, 302.85 K	0.0282
in acetone, 308.05 K	0.035
in acetone, 313.15 K	0.0425
in acetone, 317.15 K	0.0489
in acetone, 323.15 K	0.0598
in acetonitrile, 273.15 K	0.00152
in acetonitrile, 279.15 K	0.00222
in acetonitrile, 283.45 K	0.00283
in acetonitrile, 289.05 K	0.00387
in acetonitrile, 293.05 K	0.0049
in acetonitrile, 297.65 K	0.00624
in acetonitrile, 302.85 K	0.00815
in acetonitrile, 308.05 K	0.0108
in acetonitrile, 313.15 K	0.014
in acetonitrile, 317.15 K	0.0168
in acetonitrile, 323.15 K	0.0217
in cyclohexanone, 273.15 K	0.0233
in cyclohexanone, 279.15 K	0.0292
in cyclohexanone, 283.65 K	0.0341
in cyclohexanone, 289.15 K	0.041
in cyclohexanone, 293.25 K	0.0471
in cyclohexanone, 298.65 K	0.056
in cyclohexanone, 303.25 K	0.0654
in cyclohexanone, 309.05 K	0.0778
in cyclohexanone, 313.25 K	0.09
in cyclohexanone, 318.95 K	0.105
in cyclohexanone, 323.35 K	0.119
in dichloromethane, 273.15 K	0.0132
in dichloromethane, 279.15 K	0.0179
in dichloromethane, 283.45 K	0.0226
in dichloromethane, 289.05 K	0.0287
in dichloromethane, 293.05 K	0.0345
in dichloromethane, 297.65 K	0.0425
in dichloromethane, 302.85 K	0.0534
in dichloromethane, 308.05 K	0.0657
in dichloromethane, 312.15 K	0.0798
in ethanol, 273.15 K	0.00127
in ethanol, 279.15 K	0.00172
in ethanol, 283.45 K	0.00215
in ethanol, 289.05 K	0.00281
in ethanol, 293.05 K	0.00342
in ethanol, 297.65 K	0.00426
in ethanol, 302.85 K	0.00543
in ethanol, 308.05 K	0.00695
in ethanol, 313.15 K	0.00863
in ethanol, 317.15 K	0.0103
in ethanol, 323.15 K	0.013
in ethyl acetate, 273.15 K	0.00842
in ethyl acetate, 279.15 K	0.0114
in ethyl acetate, 283.45 K	0.0139
in ethyl acetate, 289.05 K	0.0178
in ethyl acetate, 293.05 K	0.0209
in ethyl acetate, 297.65 K	0.0256
in ethyl acetate, 302.85 K	0.0317
in ethyl acetate, 308.05 K	0.0395
in ethyl acetate, 313.15 K	0.0483
in ethyl acetate, 317.15 K	0.0551
in ethyl acetate, 323.15 K	0.0679
in isobutanol, 273.15 K	0.000771
in isobutanol, 279.15 K	0.00114
in isobutanol, 283.65 K	0.00149
in isobutanol, 289.15 K	0.00208
in isobutanol, 293.25 K	0.00258
in isobutanol, 298.65 K	0.00355
in isobutanol, 303.25 K	0.00446
in isobutanol, 309.05 K	0.00613
in isobutanol, 313.25 K	0.00753
in isobutanol, 318.95 K	0.0097
in isobutanol, 323.35 K	0.0119
in isopropanol, 273.15 K	0.000527
in isopropanol, 279.15 K	0.000822
in isopropanol, 283.65 K	0.00111
in isopropanol, 289.15 K	0.00164
in isopropanol, 293.25 K	0.00206
in isopropanol, 298.65 K	0.00298
in isopropanol, 303.25 K	0.00389
in isopropanol, 309.05 K	0.00542
in isopropanol, 313.25 K	0.00677
in isopropanol, 318.95 K	0.00891
in isopropanol, 323.35 K	0.0114
in methanol, 273.15 K	0.00126
in methanol, 279.15 K	0.00171
in methanol, 283.45 K	0.00209
in methanol, 289.05 K	0.00276
in methanol, 293.05 K	0.00333
in methanol, 297.65 K	0.00409
in methanol, 302.85 K	0.00513
in methanol, 308.05 K	0.00648
in methanol, 313.15 K	0.00795
in methanol, 317.15 K	0.00934
in methanol, 323.15 K	0.0117
in n-butanol, 273.15 K	0.00141
in n-butanol, 279.15 K	0.00198
in n-butanol, 283.45 K	0.00248
in n-butanol, 289.05 K	0.00338
in n-butanol, 293.05 K	0.00411
in n-butanol, 297.65 K	0.00509
in n-butanol, 302.85 K	0.00663
in n-butanol, 308.05 K	0.00843
in n-butanol, 313.15 K	0.0108
in n-butanol, 317.15 K	0.0127
in n-butanol, 323.15 K	0.0159
in n-octanol, 273.15 K	0.00126
in n-octanol, 279.15 K	0.00187
in n-octanol, 283.65 K	0.00248
in n-octanol, 289.15 K	0.00352
in n-octanol, 293.25 K	0.00449
in n-octanol, 298.65 K	0.00627
in n-octanol, 303.25 K	0.00789
in n-octanol, 309.05 K	0.011
in n-octanol, 313.25 K	0.0136
in n-octanol, 318.95 K	0.0178
in n-octanol, 323.35 K	0.022
in n-pentanol, 273.65 K	0.00163
in n-pentanol, 279.15 K	0.00226
in n-pentanol, 284.15 K	0.00291
in n-pentanol, 289.15 K	0.00386
in n-pentanol, 293.75 K	0.00479
in n-pentanol, 299.15 K	0.00631
in n-pentanol, 303.25 K	0.00766
in n-pentanol, 308.45 K	0.00965
in n-pentanol, 313.15 K	0.0121
in n-pentanol, 318.15 K	0.0151
in n-pentanol, 323.15 K	0.0185
in n-propanol, 273.15 K	0.00136
in n-propanol, 279.15 K	0.00187
in n-propanol, 283.45 K	0.00232
in n-propanol, 289.05 K	0.00313
in n-propanol, 293.05 K	0.00383
in n-propanol, 297.65 K	0.00476
in n-propanol, 302.85 K	0.00606
in n-propanol, 308.05 K	0.00781
in n-propanol, 313.15 K	0.00991
in n-propanol, 317.15 K	0.012
in n-propanol, 323.15 K	0.015
in toluene, 273.15 K	0.0043
in toluene, 279.15 K	0.00586
in toluene, 283.65 K	0.00732
in toluene, 289.15 K	0.00959
in toluene, 293.25 K	0.0114
in toluene, 298.65 K	0.0149
in toluene, 303.25 K	0.0182
in toluene, 309.05 K	0.0231
in toluene, 313.25 K	0.0273
in toluene, 318.95 K	0.0337
in toluene, 323.35 K	0.0398

From BigSolDB 2.1
